Results published in ChEMBL document CHEMBL3885861, “Open TG-GATES”.

Species: Rattus norvegicus
Assay: Open TG-GATES - Regimen: Daily Repeat
Format: toxicity, organism-based, Sprague-Dawley
Set-up: regimen Daily Repeat, gender Male, age 6 weeks
Conditions: in vivo, po, 0 mg/kg, route gavage, dose level Control; for APTT / Bas / Eos / Fbg / Hb / Ht / Lym / MCH / MCHC / MCV / Mono / Neu / PT / Plat / RBC / Ret / WBC: tissue Blood; for KIDNEY_L / KIDNEY_R / KIDNEY_TOTAL: tissue Kidney; for LIVER: tissue Liver; for A/G / ALP / ALT / AST / BUN / CRE / Ca / Cl / DBIL / GLC / IP / K / LDH / Na / PL / RALB / TBIL / TC / TG / TP / gamma-GTP: tissue Plasma

CCN1CCCC1CNC(=O)c1cc(S(N)(=O)=O)ccc1OC (configuration not stated) [SULPIRIDE]
TERMINAL_BW (72 h, time 3 day): 237.8 g
APTT (72 h, time 3 day): 16.8 s
Bas (72 h, time 3 day): 0%
Eos (72 h, time 3 day): 1%
Fbg (72 h, time 3 day): 286.8 mg/dL
Hb (72 h, time 3 day): 13.4 g/dL
Ht (72 h, time 3 day): 41.1%
Lym (72 h, time 3 day): 81.6%
MCH (72 h, time 3 day): 20.7 pg
MCHC (72 h, time 3 day): 32.7%
MCV (72 h, time 3 day): 63.2 fL
Mono (72 h, time 3 day): 2.8%
Neu (72 h, time 3 day): 14%
PT (72 h, time 3 day): 12.9 s
Plat (72 h, time 3 day): 117.1 x10_4/uL
RBC (72 h, time 3 day): 650.4 x10_4/ul
Ret (72 h, time 3 day): 6.9%
WBC (72 h, time 3 day): 82.7 x10_2/uL
KIDNEY_L (72 h, time 3 day): 1.1 g
KIDNEY_R (72 h, time 3 day): 1 g
KIDNEY_TOTAL (72 h, time 3 day): 2.1 g
LIVER (72 h, time 3 day): 11.3 g
A/G (72 h, time 3 day): 0.9
ALP (72 h, time 3 day): 1602.4 IU/L
ALT (72 h, time 3 day): 44.8 IU/L
AST (72 h, time 3 day): 67.2 IU/L
BUN (72 h, time 3 day): 15.8 mg/dL
CRE (72 h, time 3 day): 0.2 mg/dL
Ca (72 h, time 3 day): 11.1 mg/dL
Cl (72 h, time 3 day): 104.4 meq/L
DBIL (72 h, time 3 day): 0.012 mg/dL
GLC (72 h, time 3 day): 188.8 mg/dL
IP (72 h, time 3 day): 7.3 mg/dL
K (72 h, time 3 day): 4.3 meq/L
LDH (72 h, time 3 day): 73.8 IU/L
Na (72 h, time 3 day): 140.2 meq/L
PL (72 h, time 3 day): 153.2 mg/dL
RALB (72 h, time 3 day): 2.7 g/dL
TBIL (72 h, time 3 day): 0.054 mg/dL
TC (72 h, time 3 day): 79.6 mg/dL
TG (72 h, time 3 day): 108.6 mg/dL
TP (72 h, time 3 day): 5.7 g/dL
gamma-GTP (72 h, time 3 day): 1 IU/L
TERMINAL_BW ([…], time 7 day): 264.7 g
TERMINAL_BW ([…], time 14 day): 315.8 g
TERMINAL_BW ([…], time 28 day): 375.6 g
APTT ([…], time 7 day): 16.6 s
Bas ([…], time 7 day): 0.4%
Eos ([…], time 7 day): 1%
Fbg ([…], time 7 day): 286.6 mg/dL
Hb ([…], time 7 day): 13.9 g/dL
Ht ([…], time 7 day): 42%
Lym ([…], time 7 day): 82%
MCH ([…], time 7 day): 20.7 pg
MCHC ([…], time 7 day): 33.2%
MCV ([…], time 7 day): 62.5 fL
Mono ([…], time 7 day): 2.4%
Neu ([…], time 7 day): 14%
PT ([…], time 7 day): 12.8 s
Plat ([…], time 7 day): 131 x10_4/uL
RBC ([…], time 7 day): 672.6 x10_4/ul
Ret ([…], time 7 day): 5.3%
WBC ([…], time 7 day): 110.2 x10_2/uL
APTT ([…], time 14 day): 17.2 s
Bas ([…], time 14 day): 0.4%
Eos ([…], time 14 day): 0.8%
Fbg ([…], time 14 day): 289 mg/dL
Hb ([…], time 14 day): 14.6 g/dL
Ht ([…], time 14 day): 43.8%
Lym ([…], time 14 day): 77.4%
MCH ([…], time 14 day): 20 pg
MCHC ([…], time 14 day): 33.3%
MCV ([…], time 14 day): 60 fL
Mono ([…], time 14 day): 2.4%
Neu ([…], time 14 day): 18.6%
PT ([…], time 14 day): 13 s
Plat ([…], time 14 day): 112.7 x10_4/uL
RBC ([…], time 14 day): 731.4 x10_4/ul
Ret ([…], time 14 day): 3.9%
WBC ([…], time 14 day): 115 x10_2/uL
APTT ([…], time 28 day): 19.6 s
Bas ([…], time 28 day): 0%
Eos ([…], time 28 day): 1.2%
Fbg ([…], time 28 day): 286.6 mg/dL
Hb ([…], time 28 day): 15.8 g/dL
Ht ([…], time 28 day): 46%
Lym ([…], time 28 day): 77.4%
MCH ([…], time 28 day): 19.1 pg
MCHC ([…], time 28 day): 34.3%
MCV ([…], time 28 day): 55.6 fL
Mono ([…], time 28 day): 1.8%
Neu ([…], time 28 day): 19%
PT ([…], time 28 day): 12.9 s
Plat ([…], time 28 day): 119.5 x10_4/uL
RBC ([…], time 28 day): 827.2 x10_4/ul
Ret ([…], time 28 day): 2.4%
WBC ([…], time 28 day): 106.9 x10_2/uL
KIDNEY_L ([…], time 7 day): 1.1 g
KIDNEY_R ([…], time 7 day): 1.1 g
KIDNEY_TOTAL ([…], time 7 day): 2.2 g
KIDNEY_L ([…], time 14 day): 1.2 g
KIDNEY_R ([…], time 14 day): 1.2 g
KIDNEY_TOTAL ([…], time 14 day): 2.4 g
KIDNEY_L ([…], time 28 day): 1.2 g
KIDNEY_R ([…], time 28 day): 1.2 g
KIDNEY_TOTAL ([…], time 28 day): 2.5 g
LIVER ([…], time 7 day): 12.3 g
LIVER ([…], time 14 day): 13.1 g
LIVER ([…], time 28 day): 14.3 g
A/G ([…], time 7 day): 0.9
ALP ([…], time 7 day): 1380.6 IU/L
ALT ([…], time 7 day): 44.2 IU/L
AST ([…], time 7 day): 64.8 IU/L
BUN ([…], time 7 day): 16 mg/dL
CRE ([…], time 7 day): 0.2 mg/dL
Ca ([…], time 7 day): 10.8 mg/dL
Cl ([…], time 7 day): 104.4 meq/L
DBIL ([…], time 7 day): 0.016 mg/dL
GLC ([…], time 7 day): 181.6 mg/dL
IP ([…], time 7 day): 7.7 mg/dL
K ([…], time 7 day): 4.5 meq/L
LDH ([…], time 7 day): 64.4 IU/L
Na ([…], time 7 day): 141.2 meq/L
PL ([…], time 7 day): 152.8 mg/dL
RALB ([…], time 7 day): 2.6 g/dL
TBIL ([…], time 7 day): 0.052 mg/dL
TC ([…], time 7 day): 76.8 mg/dL
TG ([…], time 7 day): 118 mg/dL
TP ([…], time 7 day): 5.5 g/dL
gamma-GTP ([…], time 7 day): 1 IU/L
A/G ([…], time 14 day): 0.8
ALP ([…], time 14 day): 1582.6 IU/L
ALT ([…], time 14 day): 38.8 IU/L
AST ([…], time 14 day): 68.8 IU/L
BUN ([…], time 14 day): 17 mg/dL
CRE ([…], time 14 day): 0.2 mg/dL
Ca ([…], time 14 day): 11 mg/dL
Cl ([…], time 14 day): 103.2 meq/L
DBIL ([…], time 14 day): 0.012 mg/dL
GLC ([…], time 14 day): 193.8 mg/dL
IP ([…], time 14 day): 7.4 mg/dL
K ([…], time 14 day): 3.7 meq/L
LDH ([…], time 14 day): 67 IU/L
Na ([…], time 14 day): 141.2 meq/L
PL ([…], time 14 day): 146.2 mg/dL
RALB ([…], time 14 day): 2.6 g/dL
TBIL ([…], time 14 day): 0.056 mg/dL
TC ([…], time 14 day): 68.2 mg/dL
TG ([…], time 14 day): 133.4 mg/dL
TP ([…], time 14 day): 5.8 g/dL
gamma-GTP ([…], time 14 day): 1 IU/L
A/G ([…], time 28 day): 0.8
ALP ([…], time 28 day): 975.6 IU/L
ALT ([…], time 28 day): 38.2 IU/L
AST ([…], time 28 day): 63.8 IU/L
BUN ([…], time 28 day): 17.2 mg/dL
CRE ([…], time 28 day): 0.3 mg/dL
Ca ([…], time 28 day): 10.5 mg/dL
Cl ([…], time 28 day): 104.8 meq/L
DBIL ([…], time 28 day): 0.012 mg/dL
GLC ([…], time 28 day): 169.2 mg/dL
IP ([…], time 28 day): 6.8 mg/dL
K ([…], time 28 day): 3.7 meq/L
LDH ([…], time 28 day): 61.8 IU/L
Na ([…], time 28 day): 143.6 meq/L
PL ([…], time 28 day): 147 mg/dL
RALB ([…], time 28 day): 2.8 g/dL
TBIL ([…], time 28 day): 0.062 mg/dL
TC ([…], time 28 day): 66.4 mg/dL
TG ([…], time 28 day): 167 mg/dL
TP ([…], time 28 day): 6.1 g/dL
gamma-GTP ([…], time 28 day): 1 IU/L
